This note sets out measurements from article PMC3848336, “Aurora Isoform Selectivity: Design and Synthesis of Imidazo[4,5-b]pyridine Derivatives as Highly Selective Inhibitors of Aurora-A Kinase in Cells” (Journal of Medicinal Chemistry, 2013).

One experiment has as its target CHK1 (Homo sapiens, UniProt O14757). The experiment can be described thus: Kinase selectivity profiling. It counts as biochemical. The following applies: 110-kinase panel. The source says:
(§1) Compound 28c was profiled against a panel of 110 kinases at the International Centre for Protein Kinase Profiling, Division of Signal Transduction Therapy, University of Dundee. Compound 40f was profiled against a panel of 50 kinases (MRC-PPU Express Screen) also at the International Centre for Protein Kinase Profiling.

In a further experiment the target is CSK (Homo sapiens, UniProt P41240). The experiment can be described thus: Kinase selectivity profiling. It counts as biochemical. The settings on record: 110-kinase panel.
Description: as §1

A further experiment concerns the target DYRK3 (Homo sapiens, UniProt O43781). Description: Kinase selectivity profiling. It counts as biochemical. The settings on record: 110-kinase panel.
Description: as §1

Another experiment addresses EPH-A4 (Homo sapiens, UniProt P54764). Description: Kinase selectivity profiling. It counts as biochemical. The settings on record: 110-kinase panel, read-out: % activity remaining, EPH2A4.
Description: as §1

A further experiment deals with EPH-B1 (Homo sapiens, UniProt P54762). Description: Kinase selectivity profiling. It counts as biochemical. The following applies: 110-kinase panel, read-out: % activity remaining, EPH2B1.
Description: as §1

For another experiment, the target named is EPH-B2 (Homo sapiens, UniProt P29323). The experiment can be described thus: Kinase selectivity profiling. It counts as biochemical. The following applies: 110-kinase panel, read-out: % activity remaining, EPH2B2.
Description: as §1

A further experiment has as its target EPH-B3 (Homo sapiens, UniProt P54753). Description: Kinase selectivity profiling. It counts as biochemical. The settings on record: 110-kinase panel, read-out: % activity remaining, EPH2B3.
Description: as §1

The next experiment has as its target ERK2 (Homo sapiens, UniProt P28482). The experiment can be described thus: Kinase selectivity profiling. It counts as biochemical. The following applies: 110-kinase panel.
Description: as §1

In the next experiment the target is HIPK1 (Homo sapiens, UniProt Q86Z02). Description: Kinase selectivity profiling. It counts as biochemical. The settings on record: 110-kinase panel.
Description: as §1

Another experiment addresses HIPK3 (Homo sapiens, UniProt Q9H422). The experiment can be described thus: Kinase selectivity profiling. It counts as biochemical. The settings on record: 110-kinase panel.
Description: as §1

The next experiment deals with IRR (Homo sapiens, UniProt P14616). The experiment can be described thus: Kinase selectivity profiling. The following applies: 110-kinase panel. It counts as biochemical.
Description: as §1

A further experiment has as its target MAPKAP-K2 (Homo sapiens, UniProt P49137). Description: Kinase selectivity profiling. It counts as biochemical. The following applies: 110-kinase panel, read-out: % activity remaining, MAPKAP2K2.
Description: as §1

Another experiment has as its target MAPKAP-K3 (Homo sapiens, UniProt Q16644). Description: Kinase selectivity profiling. It counts as biochemical. The following applies: 110-kinase panel, read-out: % activity remaining, MAPKAP2K3.
Description: as §1

Another experiment addresses MARK1 (Homo sapiens, UniProt Q9P0L2). The experiment can be described thus: Kinase selectivity profiling. It counts as biochemical. The following applies: 110-kinase panel.
Description: as §1

The target in a further experiment is MARK2 (Homo sapiens, UniProt Q7KZI7). Description: Kinase selectivity profiling. It counts as biochemical. The settings on record: 110-kinase panel.
Description: as §1

A further experiment concerns the target MKK6 (Homo sapiens, UniProt P52564). Description: Kinase selectivity profiling. It counts as biochemical. The settings on record: 110-kinase panel.
Description: as §1

The target of a further experiment is MNK2 (Homo sapiens, UniProt Q9HBH9). Description: Kinase selectivity profiling. It counts as biochemical. The following applies: 110-kinase panel.
Description: as §1

For a further experiment, the target named is PHK (Homo sapiens, UniProt Q16816). Description: Kinase selectivity profiling. It counts as biochemical. The settings on record: 110-kinase panel.
Description: as §1

Another experiment deals with PIM2 (Homo sapiens, UniProt Q9P1W9). The experiment can be described thus: Kinase selectivity profiling. It counts as biochemical. The following applies: 110-kinase panel.
Description: as §1

In the next experiment the target is PKBb (Homo sapiens, UniProt P31751). The experiment can be described thus: Kinase selectivity profiling. It counts as biochemical. The following applies: 110-kinase panel.
Description: as §1

In a further experiment the target is RSK2 (Homo sapiens, UniProt P51812). Description: Kinase selectivity profiling. It counts as biochemical. The following applies: 110-kinase panel.
Description: as §1

For the next experiment, the target named is YES1 (Homo sapiens, UniProt P07947). Description: Kinase selectivity profiling. It counts as biochemical. The following applies: 110-kinase panel.
Description: as §1

Another experiment has as its target p38b MAPK (Homo sapiens, UniProt Q15759). Description: Kinase selectivity profiling. It counts as biochemical. The following applies: 110-kinase panel.
Description: as §1

A further experiment concerns the target Aurora A (Homo sapiens, UniProt O14965). The experiment can be described thus: Kinase selectivity profiling. It counts as biochemical. The following applies: 110-kinase panel.
For a further experiment, the target named is T1, Aurora-A wild type (Homo sapiens, UniProt O14965).
T1 construct: expressed in transfected cells; host or cells: Hela cervical cancer cells; HCT116 human colon carcinoma cells
Description: Cellular inhibition of Aurora-A autophosphorylation at T288 in HCT116 cells. It counts as cell-based. The following applies: 1.5 μM. How it is done:
Determination of cellular inhibition of Aurora-A (at T288) and histone H3 (at S10) has been described previously.[19] Briefly, cells were transfected with the Myc-tagged Aurora-A wild type or mutants and treated with different concentrations of the inhibitors for 2 h followed by lysis in LDS sample buffer. The samples were sonicated and boiled, and the proteins were separated by LDS–PAGE and transferred to nitrocellulose membranes. The upper and lower parts of the membranes were probed with anti-P-T288 (Aurora-A autophosphorylation/activation) and anti-P-histone H3 (Aurora-B substrate phosphorylation) antibodies, respectively. The blots were quantified and IC50 values determined using Graphpad Prism. Mammalian cell expression constructs encoding Aurora-A T217E, L215R, and R220K mutants with N-terminal Myc tags were produced using Quikchange mutagenesis (Stratagene).

A further experiment deals with Aurora B (Homo sapiens, UniProt Q96GD4). The experiment can be described thus: Cellular inhibition of histone H3 phosphorylation at S10 (Aurora-B biomarker) in HCT116 cells. It counts as cell-based.
In a further experiment the target is CK1δ (Homo sapiens, UniProt P48730). Description: Kinase selectivity profiling. It counts as biochemical. The settings on record: 50-kinase panel (MRC-PPU Express Screen).
Description: as §1

A further experiment deals with AMPK (hum). The experiment can be described thus: Kinase selectivity profiling. It counts as biochemical, human. The following applies: 1 µM; 50-kinase panel (MRC-PPU Express Screen).
Description: as §1

Sequence of Aurora B (Q96GD4 whole entry): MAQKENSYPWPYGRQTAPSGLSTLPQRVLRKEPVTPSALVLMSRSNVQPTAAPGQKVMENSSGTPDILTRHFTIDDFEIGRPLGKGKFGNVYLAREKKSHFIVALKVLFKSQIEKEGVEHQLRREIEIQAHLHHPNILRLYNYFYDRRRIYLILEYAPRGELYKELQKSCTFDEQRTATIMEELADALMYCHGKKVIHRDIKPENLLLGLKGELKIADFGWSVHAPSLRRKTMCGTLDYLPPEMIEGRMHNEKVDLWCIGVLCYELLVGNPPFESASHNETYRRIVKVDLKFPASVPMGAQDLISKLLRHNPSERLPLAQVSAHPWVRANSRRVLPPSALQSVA
Sequence of Aurora B (Q9NQS7 whole entry partner): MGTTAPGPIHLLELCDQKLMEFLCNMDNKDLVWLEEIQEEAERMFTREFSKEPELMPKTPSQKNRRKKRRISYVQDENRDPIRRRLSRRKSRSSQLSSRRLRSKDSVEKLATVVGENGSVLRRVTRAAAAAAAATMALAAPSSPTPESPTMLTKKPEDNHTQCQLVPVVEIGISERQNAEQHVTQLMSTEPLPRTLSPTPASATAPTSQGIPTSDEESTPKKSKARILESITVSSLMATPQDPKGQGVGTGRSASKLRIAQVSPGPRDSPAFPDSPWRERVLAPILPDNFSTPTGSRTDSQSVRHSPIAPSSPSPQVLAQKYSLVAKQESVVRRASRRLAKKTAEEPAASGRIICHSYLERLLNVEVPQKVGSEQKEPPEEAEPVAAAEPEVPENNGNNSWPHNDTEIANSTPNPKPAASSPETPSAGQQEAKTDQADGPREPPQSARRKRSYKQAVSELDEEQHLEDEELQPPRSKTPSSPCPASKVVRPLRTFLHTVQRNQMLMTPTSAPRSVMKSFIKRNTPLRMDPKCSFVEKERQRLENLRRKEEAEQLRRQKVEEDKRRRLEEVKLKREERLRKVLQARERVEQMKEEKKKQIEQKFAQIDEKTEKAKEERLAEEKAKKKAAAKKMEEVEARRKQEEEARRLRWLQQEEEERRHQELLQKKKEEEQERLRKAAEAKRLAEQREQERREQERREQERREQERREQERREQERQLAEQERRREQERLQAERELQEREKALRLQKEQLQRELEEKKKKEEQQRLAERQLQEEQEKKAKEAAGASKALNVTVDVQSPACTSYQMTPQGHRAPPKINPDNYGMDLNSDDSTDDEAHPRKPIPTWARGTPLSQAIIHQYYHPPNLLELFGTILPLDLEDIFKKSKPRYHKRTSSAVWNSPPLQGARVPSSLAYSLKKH
Sequence of Aurora B (O15392 whole entry partner): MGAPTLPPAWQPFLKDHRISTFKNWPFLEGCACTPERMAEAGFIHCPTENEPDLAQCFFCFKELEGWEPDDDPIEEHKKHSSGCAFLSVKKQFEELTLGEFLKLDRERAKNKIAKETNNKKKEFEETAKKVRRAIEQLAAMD
Sequence of Aurora B (Q53HL2 whole entry partner): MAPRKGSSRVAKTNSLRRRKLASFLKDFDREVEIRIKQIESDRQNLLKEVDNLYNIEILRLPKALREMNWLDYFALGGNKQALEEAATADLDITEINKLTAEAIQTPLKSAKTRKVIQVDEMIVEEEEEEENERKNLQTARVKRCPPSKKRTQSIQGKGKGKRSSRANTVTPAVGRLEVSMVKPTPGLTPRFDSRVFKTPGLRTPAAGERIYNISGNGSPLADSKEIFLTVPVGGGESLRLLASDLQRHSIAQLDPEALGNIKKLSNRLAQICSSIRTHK
Sequence of DYRK3 (O43781 whole entry): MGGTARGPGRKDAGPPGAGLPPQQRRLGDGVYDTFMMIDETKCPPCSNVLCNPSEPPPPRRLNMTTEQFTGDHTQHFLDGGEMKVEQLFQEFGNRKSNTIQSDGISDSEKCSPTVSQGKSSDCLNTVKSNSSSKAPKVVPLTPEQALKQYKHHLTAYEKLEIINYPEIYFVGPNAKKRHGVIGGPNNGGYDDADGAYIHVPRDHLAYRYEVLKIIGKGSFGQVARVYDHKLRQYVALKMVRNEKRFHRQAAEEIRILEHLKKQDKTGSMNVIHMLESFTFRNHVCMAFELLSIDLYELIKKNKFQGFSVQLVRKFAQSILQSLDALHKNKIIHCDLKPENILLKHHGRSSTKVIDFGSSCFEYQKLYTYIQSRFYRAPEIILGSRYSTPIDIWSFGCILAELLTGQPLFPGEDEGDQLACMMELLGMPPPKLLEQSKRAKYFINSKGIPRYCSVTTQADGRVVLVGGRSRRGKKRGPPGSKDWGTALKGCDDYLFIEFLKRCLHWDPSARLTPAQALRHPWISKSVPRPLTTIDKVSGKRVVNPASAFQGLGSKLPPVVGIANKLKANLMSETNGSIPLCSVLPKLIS
Sequence of HIPK3 (Q9H422 whole entry): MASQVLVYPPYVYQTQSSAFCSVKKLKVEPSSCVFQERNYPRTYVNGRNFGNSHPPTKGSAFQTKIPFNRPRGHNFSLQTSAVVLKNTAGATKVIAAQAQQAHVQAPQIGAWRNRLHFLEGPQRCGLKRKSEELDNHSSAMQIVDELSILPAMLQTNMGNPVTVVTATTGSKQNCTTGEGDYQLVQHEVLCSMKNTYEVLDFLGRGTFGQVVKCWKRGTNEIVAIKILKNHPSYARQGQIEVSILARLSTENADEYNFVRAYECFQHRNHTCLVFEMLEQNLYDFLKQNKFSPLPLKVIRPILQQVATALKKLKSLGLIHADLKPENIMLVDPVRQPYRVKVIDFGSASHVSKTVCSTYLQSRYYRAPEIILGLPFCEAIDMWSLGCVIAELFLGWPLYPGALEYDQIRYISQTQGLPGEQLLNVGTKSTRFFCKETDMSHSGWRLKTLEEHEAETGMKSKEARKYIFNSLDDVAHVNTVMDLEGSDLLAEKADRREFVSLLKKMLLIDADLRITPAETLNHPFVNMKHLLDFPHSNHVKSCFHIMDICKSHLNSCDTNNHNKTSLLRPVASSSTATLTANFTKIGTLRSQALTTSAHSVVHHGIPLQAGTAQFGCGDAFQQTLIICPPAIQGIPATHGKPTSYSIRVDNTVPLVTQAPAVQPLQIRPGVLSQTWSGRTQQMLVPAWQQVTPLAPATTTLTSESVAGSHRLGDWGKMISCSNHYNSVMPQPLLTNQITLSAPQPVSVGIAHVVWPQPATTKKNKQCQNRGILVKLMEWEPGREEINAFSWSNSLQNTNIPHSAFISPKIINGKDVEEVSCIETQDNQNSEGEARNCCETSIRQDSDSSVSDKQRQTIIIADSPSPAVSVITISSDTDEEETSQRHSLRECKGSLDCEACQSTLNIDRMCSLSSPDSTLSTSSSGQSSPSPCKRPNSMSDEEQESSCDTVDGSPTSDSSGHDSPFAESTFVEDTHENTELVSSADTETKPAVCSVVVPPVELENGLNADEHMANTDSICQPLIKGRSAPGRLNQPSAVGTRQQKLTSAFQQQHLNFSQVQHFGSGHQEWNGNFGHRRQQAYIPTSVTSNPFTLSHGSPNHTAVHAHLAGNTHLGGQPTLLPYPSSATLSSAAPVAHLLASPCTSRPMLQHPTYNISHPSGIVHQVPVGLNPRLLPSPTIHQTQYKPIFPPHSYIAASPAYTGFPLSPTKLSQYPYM
Sequence of HIPK1 (Q86Z02 whole entry): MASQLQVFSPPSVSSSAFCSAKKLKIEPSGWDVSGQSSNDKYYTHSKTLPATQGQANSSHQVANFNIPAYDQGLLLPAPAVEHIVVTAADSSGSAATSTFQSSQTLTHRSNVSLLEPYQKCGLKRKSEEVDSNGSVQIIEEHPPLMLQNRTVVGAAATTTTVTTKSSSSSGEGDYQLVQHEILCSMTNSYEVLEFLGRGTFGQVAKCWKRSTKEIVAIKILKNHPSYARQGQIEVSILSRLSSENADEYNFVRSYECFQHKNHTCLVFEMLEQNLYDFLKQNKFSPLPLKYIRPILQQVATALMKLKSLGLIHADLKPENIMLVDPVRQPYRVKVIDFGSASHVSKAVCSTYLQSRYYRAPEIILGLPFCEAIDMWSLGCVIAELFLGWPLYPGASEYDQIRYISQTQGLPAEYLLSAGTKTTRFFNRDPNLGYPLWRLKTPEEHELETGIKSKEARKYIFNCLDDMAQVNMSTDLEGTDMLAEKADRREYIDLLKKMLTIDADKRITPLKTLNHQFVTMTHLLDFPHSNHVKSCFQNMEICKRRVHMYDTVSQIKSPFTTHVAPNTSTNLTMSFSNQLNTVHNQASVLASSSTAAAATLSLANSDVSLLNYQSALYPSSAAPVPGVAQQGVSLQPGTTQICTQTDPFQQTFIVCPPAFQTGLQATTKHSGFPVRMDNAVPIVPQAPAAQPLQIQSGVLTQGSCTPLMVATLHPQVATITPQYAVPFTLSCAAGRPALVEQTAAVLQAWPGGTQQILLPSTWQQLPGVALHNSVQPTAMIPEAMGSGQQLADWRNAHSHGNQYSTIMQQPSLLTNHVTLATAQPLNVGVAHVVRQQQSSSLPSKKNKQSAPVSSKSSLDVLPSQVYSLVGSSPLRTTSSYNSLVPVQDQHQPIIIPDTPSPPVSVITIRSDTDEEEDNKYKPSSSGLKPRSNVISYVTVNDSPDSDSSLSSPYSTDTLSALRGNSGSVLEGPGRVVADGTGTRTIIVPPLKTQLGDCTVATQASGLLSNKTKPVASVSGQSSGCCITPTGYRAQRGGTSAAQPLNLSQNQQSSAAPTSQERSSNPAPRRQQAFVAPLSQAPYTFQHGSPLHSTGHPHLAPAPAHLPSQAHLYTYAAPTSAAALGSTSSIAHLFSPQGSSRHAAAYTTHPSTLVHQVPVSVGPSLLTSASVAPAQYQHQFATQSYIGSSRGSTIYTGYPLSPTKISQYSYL
Sequence of PIM2 (Q9P1W9 whole entry): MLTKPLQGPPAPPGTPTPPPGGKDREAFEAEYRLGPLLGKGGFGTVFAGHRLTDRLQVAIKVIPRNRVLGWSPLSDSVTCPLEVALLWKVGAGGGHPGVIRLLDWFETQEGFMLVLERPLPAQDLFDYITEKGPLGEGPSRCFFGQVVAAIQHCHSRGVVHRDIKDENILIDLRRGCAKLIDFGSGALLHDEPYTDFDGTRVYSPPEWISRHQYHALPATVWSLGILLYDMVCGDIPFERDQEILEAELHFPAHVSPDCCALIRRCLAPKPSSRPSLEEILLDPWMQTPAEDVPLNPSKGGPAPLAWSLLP

Take `Cc1nn(C)cc1-c1nc2c(Oc3ccc(C(=O)Nc4ccccc4)cc3)c(Cl)cnc2[nH]1` [compound 28c, 4-((6-Chloro-2-(1,3-dimethyl-1H-pyrazol-4-yl)-3H-imidazo[4,5-b]pyridin-7-yl)oxy)-N-phenylbenzamide]: the remaining activity (usually the signal under treatment as a percentage of the control signal) at 1 µM on CHK1 came to 94%; on CSK, 76%; on DYRK3, 102%; on EPH-A4, 112%; at EPH-B1, 127%; at EPH-B2, 91%. In addition, the remaining activity at 1 µM on EPH-B3 worked out at 106%; at ERK2 it was 85%; on HIPK1, 102%; on HIPK3 it was 96%; on IRR, 108%; on MAPKAP-K2 it was 91%. Further, the remaining activity at 1 µM at MAPKAP-K3 was 92%; on MARK1 it was 103%; on MARK2, 104%; on MKK6, 95%; on MNK2, 109%; at PHK it was 101%. Moreover, the remaining activity at 1 µM was 117% at PIM2; 78% at PKBb; 94% at RSK2; 111% at YES1; 89% on p38b MAPK; 4% on Aurora A.
For `Cc1nn(C)cc1-c1nc2c(Oc3ccc(C(=O)NC4CCC4)cc3)c(Cl)cnc2[nH]1` [compound 40f, 4-((6-Chloro-2-(1,3-dimethyl-1H-pyrazol-4-yl)-3H-imidazo[4,5-b]pyridin-7-yl)oxy)-N-cyclobutylbenzamide], at Aurora-A wild type, the “phosphorylation of Aurora-A” value was “completely inhibited”. Moreover, the “histone H3 phosphorylation” value on Aurora B (1.5 μM) is “increase in histone H3 phosphorylation”. In addition, the “inhibition of histone H3 phosphorylation at S10” value against Aurora B (25 μM) is listed as “partial inhibition”; against Aurora B (50 μM), “complete inhibition”. Further, at CK1δ, the remaining activity at 1 µM came out at 87%. Also, the “% activity remaining, AMPK (hum)” value in the experiment on AMPK (hum) is recorded as 85%.
